Data from patent publication US4898936A, “2-deoxyuridines and riboside precursors” (priority 1985, dated 1990).
Values joined by “and” are separate entries in the source; they are usually repeats but may differ in a detail not shown here. Equal values may be shown once.

How the values were obtained:
Sarcoma 180 [1] = test: Comparison of activities of antitumor agents on Sarcoma 180 in mice (50% tumor regression); type: in vivo; conditions: Mus musculus
Excerpt: In comparison with the activities of other antitumor agents on Sarcoma 180 in mice, the following results were obtained: […]

Sarcoma 180 [2] = conditions: cited from earlier work; for Antitumor activity value (A): Administration amount of test compound, at which tumor enhancement is inhibited by 50% compared with that of control group: oral, once a day for 7 consecutive days, tumor weight on tenth day, Sarcoma 180, mice, 14400 min
Sarcoma 180 [3] = type: in vivo, mouse (male ICR/JCL-strain); conditions: toxicity value (B) / antitumor activity value (A); oral, mice
Method: (c) Calculation of therapeutic index
By the use of the antitumor activity value (hereinafter referred to as A) and the toxicity value (hereinafter referred to as B) of each compound, which were obtained in the above items (a) and (b), respectively, therapeutic index (hereinafer referred to as C) was calculated in accordance with the following equation: […]
Pharmacological tests-(Continued) [formula]

[4] = cited from earlier work; for Toxicity value (B): Administration amount of test compound at which weight increase of test animal is inhibited by 50% compared with that of control group: oral, once a day for 7 consecutive days, mice
Sarcoma 180 [5] = test: Antitumor activity in mice against Sarcoma 180 (effective dose); type: in vivo; conditions: Sarcoma 180, mice; for ED50: Mus musculus, po, effective dose, administered orally
Method: (§1) The effective dose and the lethal dose has been determined as follows:
^+ Test animals alive at indicated dose. The dosage is administered

Hygroscopicity = type: physicochemical; conditions: beta-anomer
Sarcoma 180 [6] = conditions: from Table 1; cited from earlier work
[7] = type: in vivo; conditions: lethal dose, administered orally; + Test animals alive at indicated dose
Method: as §1
The dosage is administered

| SMILES | ED50 (Sarcoma 180 [1]) [mg/kg] | Antitumor activity value (A): Administration amount of test compound, at which tumor enhancement is inhibited by 50% compared with that of control group (Sarcoma 180 [2]) | Therapeutic Index (C) = (B)/(A) (Sarcoma 180 [3]) | Toxicity value (B): Administration amount of test compound at which weight increase of test animal is inhibited by 50% compared with that of control group [4] | ED50 (Sarcoma 180 [5]) [mg/kg] | hygroscopicity (Hygroscopicity) | antitumor activity in mice against Sarcoma 180 (in words) (Sarcoma 180 [5]) | usefulness when compared in therapeutic index (in words) (Sarcoma 180 [6]) | LD10 [7] [mg/kg] | antitumor activity compared with F3 TdR and FudR (in words) (Sarcoma 180 [2]; from Table 1) | toxicity compared with F3 TdR and FudR (in words) ([4]; from Table 1) |
| --- | --- | --- | --- | --- | --- | --- | --- | --- | --- | --- | --- |
| O=c1[nH]c(=O)n(C2CCCO2)cc1F (stereo not shown) [Ftorafur] | 120 | – | – | – | – | – | – | – | – | – | – |
| O=c1[nH]c(=O)n([C@H]2C[C@H](O)[C@@H](CO)O2)cc1F [FudR, 2'-deoxy-5-fluorouridine, reference compound] | – | 93 mg/kg/day | 0.76 | 71 mg/kg/day | – | – | – | – | – | – | – |
| O=c1[nH]c(=O)n([C@H]2C[C@H](O)[C@@H](CO)O2)cc1C(F)(F)F [F3 TdR, 2'-deoxy-5-trifluoromethyluridine, reference compound] | 60 to 80 | 68 mg/kg/day and 58 mg/kg/day | – | 49 mg/kg/day and 40 mg/kg/day | 75 | – | – | – | – | – | – |
| O=c1[nH]c(=O)n([C@H]2C[C@H](OCc3ccccc3)[C@@H](CO)O2)cc1F [3'-O-Benzyl-2'-deoxy-5-fluorouridine, 3'-O-Benzyl-2'-Deoxy-5-Fluorouridine] | – | 17 mg/kg/day | 2.06 | 35 mg/kg/day | – | not hygroscopic | show antitumor activity in mice against Sarcoma 180 | especially useful | – | – | – |
| O=c1[nH]c(=O)n([C@H]2C[C@H](OCc3ccccc3)[C@@H](CO)O2)cc1C(F)(F)F [3'-O-Benzyl-2'-Deoxy-5-Trifluoromethyluridine] | 14 | 17 mg/kg/day | 1.88 | 32 mg/kg/day | 14 | – | show antitumor activity in mice against Sarcoma 180 | especially useful | 80 | far superior to them in antitumor activity | equal or superior to F3 TdR and FudR in toxicity |
| Nc1nc(=O)n([C@H]2C[C@H](O)[C@@H](CO)O2)cc1C(F)(F)F [CF3 dC, 5-Trifluoromethyl-2deoxycytidine] | 60 to 80 | – | – | – | – | – | – | – | – | – | – |
